Experimental data reported in US6339081B1, “Composition and use” (priority 1996, dated 2002).

Tests used:
Assay type in all cases: cell-based
mixed bacterial culture = assay: Preservation of unpreserved latex, repeated challenge with mixed bacterial culture; parameters: key to Viable bacteria, Third inoculum (days) 5 / Viable bacteria, Third inoculum (days) 7 / Viable bacteria, First inoculum (days) 3 / Viable bacteria, First inoculum (days) 5 / Viable bacteria, First inoculum (days) 7 / Viable bacteria, Second inoculum (days) 3 / Viable bacteria, Second inoculum (days) 5 / Viable bacteria, Second inoculum (days) 7 / Viable bacteria, Third inoculum (days) 3: C is confluent growth over the surface; − is no visible colonies; + is few visible colonies; ++ is clusters of discreet colonies; conditions: for Viable bacteria, First inoculum (days) 3 / Viable bacteria, First inoculum (days) 5 / Viable bacteria, First inoculum (days) 7 / Viable bacteria, Second inoculum (days) 3 / Viable bacteria, Second inoculum (days) 5 / Viable bacteria, Second inoculum (days) 7 / Viable bacteria, Third inoculum (days) 3 / Viable bacteria, Third inoculum (days) 5 / Viable bacteria, Third inoculum (days) 7: latex, Amount 200 ppm of each component present; for antimicrobial activity in latex: zinc salt alone, 200 ppm (Table 1)
Procedure: Aliquots (25 parts) of unpreserved latex containing 50% by weight solids of a copolymer of 2-ethylhexylacrylate/acrylic acid at pH 8.5 were formulated with zinc acetate and the 2:1 zinc complex of 3-hydroxy4-methyl thiazol-2(3H)-thione in the amounts shown in Table 1 below. After formulation, each aliquot was stored at 20° C. for 1 week prior to inoculation with a mixed bacterial culture.
The bacterial culture was prepared by culturing the following seven bacteria in nutrient agar for 24 hours at 30° C.
Each of the individual bacterium was prepared at a concentration of 10^8 cells/ml in quarter strength Ringers solution by means of a Thoma counting chamber. The mixed inoculum was prepared by mixing equal volumes of the cultures containing the individual bacterium.
The latex aliquots were repeatedly inoculated at 0, 7 and 14 day intervals with 0.5 ml mixed inoculum (2×10^6 cells/ml) and incubated at 30° C. The number of viable bacteria was determined by streaking a small portion of each aliquot of latex onto nutrient agar after 3, 5 and 7 days followed by visible assessment after incubation for 2 days at 30° C.

[1] = test system: contaminated matt paint millbase; assay: Viable cells in contaminated matt paint millbase
Procedure: 25 ml Aliquots of a contaminated matt paint millbase were formulated with the 2:1 zinc complex of 3-hydroxy-4-methylthiazol-2(3H)-thione and zinc acetate as shown in Table 2 below. The number of variable cells was determined by streaking a small portion of each aliquot of millbase onto nutrient agar after 5, 7 and 14 days. The number of cells was determined by visible assessment following incubation for 2 days at 30° C.

[2] = test system: Pseudomonas aeruginosa NCIB 10421; assay: MIC and Fractional Inhibitory Concentration (FIC) in microtitre array
Procedure: The gram negative bacterium, Pseudomonas aeruginosa NCIB 10421 was grown in nutrient broth to stationary phase during 18 hours and contained approximately 10^9 organisms/ml. A 0.1% (v/v) inoculum was used to seed fresh nutrient broth and 100 μl was then added to each well of a microtitre plate, except for the first well which contained 200 μl.
Solutions of zinc acetate (ZnAc) and the 2:1 zinc complex of 3-hydroxy-4-methylthiazol-2(3H)-thione (ZHMT), respectively, were prepared in nutrient broth at twice the final concentration to be used in the microtitre array. A microtitre array was prepared with concentration of zinc acetate and ZHMT from twice the MIC down to zero concentration in a 10×10 array. Since the array contains only 96 wells, the highest and lowest concentration of the zinc acetate and ZHMT were omitted. The dilution of the ZHMT was doubled across the ordinate axis of the array by transferring 100 μl aliquots so that the final volume in each well was 200 μl. The microtitre plate was then incubated for 16 to 24 hours at 37° C. and the presence of bacterial growth assessed visually.
The FIC is defined as the sum of the fractional inhibitory concentration of each component. The FIC of the individual component is the ratio of the concentration of the component in the binary mixture divided by its MIC.

SMILES | Viable bacteria, First inoculum (days) 3 (mixed bacterial culture) | Viable bacteria, First inoculum (days) 5 (mixed bacterial culture) | Viable bacteria, First inoculum (days) 7 (mixed bacterial culture) | Viable bacteria, Second inoculum (days) 3 (mixed bacterial culture) | Viable bacteria, Second inoculum (days) 5 (mixed bacterial culture) | Viable bacteria, Second inoculum (days) 7 (mixed bacterial culture) | Viable bacteria, Third inoculum (days) 3 (mixed bacterial culture) | Viable bacteria, Third inoculum (days) 5 (mixed bacterial culture) | Viable bacteria, Third inoculum (days) 7 (mixed bacterial culture) | antimicrobial activity in latex (mixed bacterial culture) | effect on activity of the metal complex [1] | FIC [2] | Minimum Inhibitory Concentrations (MIC) [2] [ppm] | effect on the ZHMT ([2]; ZnAc replaced with half the weight of the metal salt) | synergy with ZHMT [2]
CC(=O)[O-].CC(=O)[O-].[Zn+2] [ZA, zinc acetate] | − | − | − | ++ | ++ | ++ | ++ | ++ | ++ | no antimicrobial activity | increases the bacterial activity of the metal complex | 1 | 250 |  | 
[Cl][Fe]([Cl])[Cl] [ferric chloride] |  |  |  |  |  |  |  |  |  |  |  |  |  | antagonistic effect | 
[Cl-].[Cl-].[Mg+2] [magnesium chloride] |  |  |  |  |  |  |  |  |  |  |  |  |  |  | no synergy
[Cl-].[Cl-].[Zn+2] [ZC, zinc chloride] | + | − | − | ++ | ++ | ++ | C | C | C | no antimicrobial activity |  |  |  |  | 
